Assay results as given in patent publication US20260363977A1, “COSMETIC COMPOSITION FOR PREVENTING OR AMELIORATING SKIN DISEASES COMPRISING TRIBULUS TERRESTRIS-DERIVED COMPOUND AS ACTIVE INGREDIENT” (DONGGUK UNIVERSITY INDUSTRY-ACADEMIC COOPERATION FOUNDATION, priority 2022, published 2026).

How the values were obtained:
Assay type in all cases: cell-based
tyrosinase; p16 (Ink4a) = experiment: Combined analysis of skin whitening (tyrosinase in three cell models) and anti-aging (p16 in keratinocytes) effects; conditions: 5 of 16 candidate materials; non-cytotoxic concentrations; 48 hours
Description: Keratinocytes were seeded in a culture container at 2×10^5/ml, after 24 hours, pCMV plasmids containing one of three genes [arginase 2 (ARG2, NCBI Gene ID: 384), cadherin 11 (CDH11, NCBI Gene: 1009), and guanine deaminase (GDA, NCBI Gene: 9615)] were transfected into cells using Lipofectamine 2000 to induce overexpression, and after 4 hours of culture with Dulbecco's Modified Essential Medium (DMEM) culture medium without supplements, 0.5×10^5/ml melanocytes were mixed with the keratinocyte culture medium containing supplements and co-cultured in the same culture container. After 24 hours, the keratinocyte culture medium without supplements was replaced, and after 5 hours, the normal melanocytes were treated with the 16 candidate materials for 48 hours. […]
(§1) In order to identify the skin whitening and anti-aging effects of 16 candidate materials in Example 1-2, for the skin whitening effect, each of the three types of cell models constructed in the Example 2-1 was treated with the 16 candidate materials at concentrations at which no cytotoxicity is shown in the melanocytes identified in Example 1-1 for 48 hours, and then Western blot was performed to measure the expression of tyrosinase. The experiment was repeated 4 times, and P<0.05 was determined to be significant. […] The experiment was repeated 4 times, and P<0.05 was determined to be significant.

tyrosinase [1] = experiment: Western blot of tyrosinase expression in CDH11 overexpressing keratinocyte / melanocyte co-culture model (with pCMV control gene model); conditions: 10 μM, 48 hours, compared to control group (CON), FIG. 3
Description: (§2) Keratinocytes used were isolated from normal adult skin tissues obtained through repeated cesarean section and circumcision. The cells were dispensed into EpiLife Medium, and bovine pituitary extract (BPE), bovine insulin (BI), hydrocortisone, human epidermal growth factor (EGF), and bovine transferrin (BT) were added and cultured. The cells that had undergone the 3rd~5th passage culture were used in the experiment. The pituitary extract, bovine insulin, hydrocortisone, human epidermal growth factor, and bovine transferrin were used by purchasing from Invitrogen.
(§3) Melanocytes used were isolated from normal adult skin tissues obtained through repeated cesarean section and circumcision. […]
as §1

tyrosinase [2] = experiment: Western blot of intracellular tyrosinase expression in melanocytes (skin whitening effect); conditions: T13 at 10 μM, 48 hours, compared to control group (CON), repeated 4 times or more, FIG. 2
Description: (§4) Melanocytes used were isolated from normal adult skin tissues obtained through repeated cesarean section and circumcision. Dispase 2.4U (#295 825; Roche, Mannheim, Germany) was treated for 1 hour to separate the epidermis, and 0.05% trypsin was treated for 10 minutes to isolate melanocytes. Afterwards, the cells were suspended in Medium 254, and the bovine pituitary extract (BPE), fetal bovine serum (FBS), hydrocortisone, basic fibroblast growth factor (bFGF), bovine transferrin (BT), heparin, and phorbol 12-myristate13-acetate (PMA, Invitrogen) were added and cultured. The cells that had undergone the 3rd~5th passage culture were used in the experiment.
In order to identify the skin whitening effect of the 136 candidate materials, Western blot was performed. After treating melanocytes with the candidate material at a concentration at which no cytotoxicity was shown in the melanocytes identified in Example 1-2 for 48 hours, intracellular tyrosinase expression was measured. The experiment was repeated 4 times or more.

tyrosinase [3] = experiment: Western blot of tyrosinase expression in ARG2 overexpressing keratinocyte / normal melanocyte co-culture model (with pCMV control gene model); conditions: 10 μM, 48 hours, compared to control group (CON), P<0.05, FIG. 3
Description: as §2, §3, §1

tyrosinase [4] = experiment: Western blot of tyrosinase expression in GDA overexpressing keratinocyte / melanocyte co-culture model (with pCMV control gene model); conditions: 10 μM, 48 hours, compared to control group (CON), P<0.05, FIG. 3
Description: as §2, §3, §1

p16 (Ink4a) = experiment: Western blot of p16 (Ink4a) expression in keratinocytes (anti-aging effect); conditions: 10 μM, 48 hours, compared to control group (CON), P<0.05, FIG. 4
Description: as §2
In order to identify the skin whitening and anti-aging effects of 16 candidate materials in Example 1-2, for the skin whitening effect, each of the three types of cell models constructed in the Example 2-1 was treated with the 16 candidate materials at concentrations at which no cytotoxicity is shown in the melanocytes identified in Example 1-1 for 48 hours, and then Western blot was performed to measure the expression of tyrosinase. The experiment was repeated 4 times, and P<0.05 was determined to be significant. In addition, for analysis on the anti-aging effect, the keratinocytes were treated with the above 16 candidate materials for 48 hours each, and then Western blot was performed to measure the expression of p16 (Ink4a). The experiment was repeated 4 times, and P<0.05 was determined to be significant.

Melanocytes = experiment: MTT cytotoxicity assay in melanocytes; conditions: up to the treatment concentration of 10 μM, 48 hours, FIG. 1
Description: as §4
In order to identify cytotoxicity of the 136 candidate materials, MTT assays were performed. Melanocytes were treated with the candidate materials by concentration (10, 50, and 100 μM) for 48 hours, and the cell viability was measured to determine the concentration range at which no cytotoxicity of each candidate material is observed.

With `COc1cc([C@@H](O)[C@H](CO)c2ccc(O)c(OC)c2)ccc1O` [T13] as the compound, how does the “skin whitening and anti-aging effects shown together” value (tyrosinase; p16 (Ink4a)) read?
Its value is “skin whitening and anti-aging effects were shown together”.

What about the “tyrosinase expression, CDH11 overexpressing co-cultured cell model” value (tyrosinase [1]; CDH11 model) of the same compound?
The value was “tyrosinase expression was reduced”.

What about the “tyrosinase expression, control gene overexpressing co-cultured cell model (pCMV)” value (from here on “tyrosinase expression … (pCMV)”) (tyrosinase [1]; pCMV model of the CDH11 experiment) of the same compound?
Its value is “did not show a significant difference in expression”.

What about the “intracellular tyrosinase expression in melanocytes” value (tyrosinase [2]) of the same compound?
The value was “significantly reduced”.

What about the “tyrosinase expression, ARG2 overexpressing co-cultured cell model” value (tyrosinase [3]; ARG2 model, more distinct than in pCMV model) of the same compound?
The value was “degree of reduction in tyrosinase expression was more distinct”.

What about the “tyrosinase expression … (pCMV)” value (tyrosinase [3]; pCMV model of the ARG2 experiment) of the same compound?
The value was “significant decrease in tyrosinase expression”.

And the “tyrosinase expression, GDA overexpressing co-cultured cell model” value (tyrosinase [4]; GDA model, more distinct than in pCMV model)?
Its value is “degree of reduction in tyrosinase expression was more distinct”.

And the “tyrosinase expression … (pCMV)” value (tyrosinase [4]; pCMV model of the GDA experiment)?
The value was “significant reduction in tyrosinase expression”.

And the “p16 (Ink4a) expression in keratinocytes” value (p16 (Ink4a))?
Its value is “significantly reduced”.

And the “cytotoxicity in melanocytes (cell viability, MTT)” value (Melanocytes)?
The value was “did not show cytotoxicity”.
